Assay results as given in patent US20210371827A1, “METHOD FOR PREPARING CANCER STEM CELL SPHEROIDS” (KOREA ADVANCED INSTITUTE OF SCIENCE AND TECHNOLOGY, priority 2018, published 2021).

Columns and labels:
Assay in all cases: Cell viability for doxorubicin (WST-1)
Type in all cases: cell-based, human
[1] = test system: SKOV3-ssiCSC; conditions: various concentrations, 24 hours
Procedure: (§1) ssiCSC spheroids prepared from different kinds of cancer cells (SKOV3, MCF-7, Hep3B and SW480) were isolated using trypsin (TrypLE Express, Gibco), and the isolated cells were washed with D-PBS twice. The ssiCSC was plated on a 96-well plate (1×10^4 cells/well) and was cultured in a cell growth medium at 37° C. for 24 hours. Then, the medium was removed, and a new medium comprising various concentrations of doxorubicin was added to each well and cultured for 24 hours. Next, each well was washed with D-PBS and was replaced with a new cell growth medium of 100 μl, and then WST-1 cell proliferation reagent (Roche) of 10 μl was added and cultured for 4 hours. Then, the absorbance at 450 nm (standard wavelength, 600 nm) was measured using a microplate reader (Molecular Devices).
(§2) In addition, the drug resistance of ssiCSC for doxorubicin (DOX) known as an anticancer agent was confirmed. Specifically, ssiCSC spheroids prepared by culturing on the pV4D4 surface for 8 days were isolated to single cells, and the cell was cultured on the conventional TCP surface to a 2D single layer, and then DOX at various concentrations was treated for 24 hours. […] The SW480-ssiCSC maintained drug resistance when subcultured on the TCP surface twice, and through this, it can be seen that original cancer cells were transformed into CSC-like cells (FIG. 12c).

[2] = test system: SW480-ssiCSC; conditions: various concentrations, 24 hours
Procedure: as §1, §2

[3] = test system: ssiCSC (SKOV3, MCF-7, Hep3B and SW480); conditions: 50 μM, 24 hours; compared to the 2D control group
Procedure: as §1, §2

Compound: COc1cccc2c1C(=O)c1c(O)c3c(c(O)c1C2=O)C[C@@](O)(C(=O)CO)C[C@@H]3O[C@H]1C[C@H](N)[C@H](O)[C@H](C)O1 [Dox, doxorubicin]
- drug resistance (cell viability) [1]: complete resistance
- drug resistance (cell viability) [2]: complete resistance
- drug resistance (cell viability) [3]: higher resistance
